# Source: ChEMBL document CHEMBL1201862, “PubChem BioAssay data set” (2004)
#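 Cultured in 96-well plates, cells were exposed to test compound for 48 hours across five concentrations. The concentration for 50% growth inhibition is given as GI50.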 The source made the active and inactive calls. Rule as the data show it: active = GI50 up to about 1.1 µM and inactive = higher.
# Experiments:
# Test in all cases: NCI tumour cell line growth inhibition, 48 h
# [1] = test system: UO-31
# [2] = test system: IGROV-1
# [3] = test system: HT-29
# [4] = test system: NCI-H226
# [5] = test system: HCT-15
# [6] = test system: NCI-H460
# [7] = test system: OVCAR-4
# [8] = test system: SNB-19
# [9] = test system: SF-295
# [10] = test system: HOP-18
# [11] = test system: NCI-H522
# [12] = test system: HCT-116
# [13] = test system: SK-MEL-2
# [14] = test system: EKVX
# [15] = test system: ACHN
# [16] = test system: Hs-578T
# [17] = test system: PC-3
# [18] = test system: NCI/ADR-RES
# [19] = test system: MDA-MB-231
# [20] = test system: T47D
SMILES,GI50 [1],GI50 [2],GI50 [3],GI50 [4],GI50 [5],GI50 [6],GI50 [7],GI50 [8],GI50 [9],GI50 [10],GI50 [11],GI50 [12],GI50 [13],GI50 [14],GI50 [15],GI50 [16],GI50 [17],GI50 [18],GI50 [19],GI50 [20]
COC[C@@H]1[C@H]2OC(C)(C)O[C@H]2C(=O)N1C(=O)c1ccc(OC)cc1,> 100 µM (inactive),> 100 µM (inactive),> 100 µM (inactive),> 100 µM (inactive),> 100 µM,> 100 µM (inactive),> 100 µM (inactive),> 100 µM (inactive),> 100 µM (inactive),> 100 µM (inactive),> 71.8 µM (inactive),> 100 µM (inactive),> 100 µM (inactive),> 100 µM (inactive),> 100 µM (inactive),,,,,
O=c1c2ccccc2nc(-c2cccc(Cl)c2)n1NC1OC(CO)C(O)C(O)C1O (centres undefined),> 100 µM (inactive),> 100 µM (inactive),> 100 µM (inactive),> 100 µM (inactive),> 100 µM,> 100 µM (inactive),> 100 µM (inactive),> 100 µM (inactive),> 100 µM (inactive),50.8 µM (inactive),> 100 µM (inactive),> 100 µM (inactive),> 100 µM (inactive),> 100 µM (inactive),> 100 µM (inactive),,,,,
CCOC(=O)[C@@]12C(C)=CC(=O)O[C@]1(C)C[C@H]2C#N,> 100 µM (inactive),> 100 µM (inactive),> 100 µM (inactive),50.9 µM (inactive),> 100 µM,> 100 µM (inactive),> 100 µM (inactive),> 100 µM (inactive),> 100 µM (inactive),15.4 µM (inactive),,> 100 µM (inactive),> 100 µM (inactive),> 100 µM (inactive),> 100 µM (inactive),,,,,
O=C1C=C(Nc2ccc(Cl)cc2C(=O)c2ccccc2)c2ccccc2C1=O,> 100 µM (inactive),> 100 µM (inactive),> 100 µM (inactive),> 100 µM (inactive),> 100 µM,> 100 µM (inactive),> 100 µM (inactive),> 100 µM (inactive),> 100 µM (inactive),> 100 µM (inactive),> 100 µM (inactive),> 100 µM (inactive),> 100 µM (inactive),> 100 µM (inactive),> 100 µM (inactive),,,,,
Nc1nc(N)c(-c2ccccc2)c(C(=O)Nc2ccc(Cl)c(Cl)c2)n1,> 100 µM (inactive),> 100 µM (inactive),> 100 µM (inactive),> 100 µM (inactive),> 100 µM,> 100 µM (inactive),> 100 µM (inactive),> 100 µM (inactive),> 100 µM (inactive),> 100 µM (inactive),,> 100 µM (inactive),> 100 µM (inactive),> 100 µM (inactive),> 100 µM (inactive),,,,,
O=C1C(c2ccccc2)=C(c2ccccc2)C(c2ccc(-c3ccc(C4=C(c5ccccc5)C(=O)C(c5ccccc5)=C4c4ccccc4)cc3)cc2)=C1c1ccccc1,> 100 µM (inactive),> 100 µM (inactive),> 100 µM (inactive),> 100 µM (inactive),> 100 µM,> 100 µM (inactive),> 100 µM (inactive),> 100 µM (inactive),> 100 µM (inactive),> 100 µM (inactive),> 100 µM (inactive),> 100 µM (inactive),> 100 µM (inactive),> 100 µM (inactive),,,,,,
CC[C@@H](C)[C@H]([C@H](CC(=O)N1CCC[C@@H]1[C@@H](OC)[C@H](C)C(=O)N[C@H](Cc1ccccc1)c1nccs1)OC)N(C)C(=O)[C@H](NC(=O)[C@@H](C(C)C)N(C)C)C(C)C,0.00206 µM (active),0.000681 µM (active),2.24e-05 µM (active),0.000153 µM (active),0.000366 µM,5.9e-05 µM (active),0.000745 µM (active),0.000267 µM (active),0.000146 µM (active),0.00407 µM (active),< 0.01 µM (active),0.000125 µM (active),0.000125 µM (active),0.000277 µM (active),0.000439 µM (active),< 0.01 µM (active),< 0.01 µM (active),< 0.01 µM (active),< 0.01 µM (active),> 77.6 µM (inactive)
Cc1cccc(NC(=O)C(=O)Cc2nc3ccccc3nc2O)c1C,> 100 µM (inactive),> 100 µM (inactive),> 100 µM (inactive),> 100 µM (inactive),> 100 µM,> 100 µM (inactive),> 100 µM (inactive),> 100 µM (inactive),> 100 µM (inactive),> 100 µM (inactive),> 100 µM (inactive),> 100 µM (inactive),,> 100 µM (inactive),> 100 µM (inactive),,,,,
COC(=O)N/N=C(/c1nc2ccc([N+](=O)[O-])cc2nc1O)C(O)c1ccc(OC)c(OC)c1 (centres undefined),> 100 µM (inactive),> 100 µM (inactive),> 72.9 µM (inactive),> 100 µM (inactive),46.8 µM,59 µM (inactive),> 100 µM (inactive),> 100 µM (inactive),98.6 µM (inactive),> 100 µM (inactive),40.5 µM (inactive),97.1 µM (inactive),> 100 µM (inactive),> 100 µM (inactive),> 100 µM (inactive),59 µM (inactive),76.2 µM (inactive),92 µM (inactive),64.3 µM (inactive),80 µM (inactive)
COc1ccc(C2CC(C)=Nc3c(O)nc(S)nc3N2)cc1 (centres undefined),17.9 µM (inactive),18.8 µM (inactive),28.5 µM (inactive),17.2 µM (inactive),16.3 µM,16.6 µM (inactive),,18.7 µM (inactive),22 µM (inactive),62.7 µM (inactive),16.3 µM (inactive),16.5 µM (inactive),63.8 µM (inactive),22.1 µM (inactive),18.7 µM (inactive),,,,,
CN(C)CCNc1ccc(CO)c2sc3ccc(O)cc3c(=O)c12,0.35 µM (active),3.42 µM (inactive),2.3 µM (inactive),1.15 µM (inactive),2.31 µM,0.0259 µM (active),4.63 µM (inactive),2.46 µM (inactive),1 µM (active),12.9 µM (inactive),1.32 µM (inactive),1.12 µM (inactive),5.21 µM (inactive),5.13 µM (inactive),0.351 µM (active),,1.32 µM (inactive),3.28 µM (inactive),1.85 µM (inactive),1.91 µM (inactive)
COc1ccc2c(c1)C=C([N+](=O)[O-])C(C1OC(C)(C)OC1C1COC(C)(C)O1)O2 (centres undefined),13.1 µM (inactive),14.6 µM (inactive),1.97 µM (inactive),14.6 µM (inactive),1.95 µM,3.64 µM (inactive),8.17 µM (inactive),11.9 µM (inactive),7.89 µM (inactive),24.7 µM (inactive),0.731 µM (active),1.79 µM (inactive),1.87 µM (inactive),13.8 µM (inactive),2.4 µM (inactive),4.18 µM (inactive),,,2.36 µM (inactive),12 µM (inactive)
O=C1c2ccccc2C(=O)c2sc(Nc3ccccc3Cl)nc21,10.6 µM (inactive),13.9 µM (inactive),21.5 µM (inactive),5.56 µM (inactive),9.38 µM,12.9 µM (inactive),8.18 µM (inactive),14.5 µM (inactive),16.1 µM (inactive),13.4 µM (inactive),3.69 µM (inactive),10.7 µM (inactive),13.6 µM (inactive),14.3 µM (inactive),5.68 µM (inactive),11.1 µM (inactive),12.7 µM (inactive),,3.78 µM (inactive),11.1 µM (inactive)
CN(C)CCN(C)CC1COC(C)(C)O1 (centres undefined),> 100 µM (inactive),> 100 µM (inactive),> 100 µM (inactive),> 100 µM (inactive),,> 100 µM (inactive),> 100 µM (inactive),> 100 µM (inactive),> 100 µM (inactive),> 100 µM (inactive),> 100 µM (inactive),> 100 µM (inactive),> 100 µM (inactive),> 100 µM (inactive),> 100 µM (inactive),,,,,
Cc1cccc(/C=N/C23CC4CC(CC(C4)C2)C3)c1,> 100 µM (inactive),> 100 µM (inactive),> 100 µM (inactive),> 100 µM (inactive),> 100 µM,> 100 µM (inactive),> 100 µM (inactive),> 100 µM (inactive),> 100 µM (inactive),> 100 µM (inactive),> 100 µM (inactive),> 100 µM (inactive),> 100 µM (inactive),> 100 µM (inactive),> 100 µM (inactive),,,,,
C[C@@H]1CCC([C@@H](C)[C@H]2CC[C@H]3[C@@H]4CC[C@H]5C[C@@H](O)CC[C@]5(C)[C@H]4CC[C@]23C)=NC1,10.4 µM (inactive),4.71 µM (inactive),2.45 µM (inactive),> 29.8 µM (inactive),2.76 µM,7.62 µM (inactive),7.46 µM (inactive),10.6 µM (inactive),4.71 µM (inactive),,3.96 µM (inactive),6.43 µM (inactive),14.1 µM (inactive),12.4 µM (inactive),14 µM (inactive),33.7 µM (inactive),10.1 µM (inactive),8.53 µM (inactive),30 µM (inactive),12.7 µM (inactive)
